Laboratory results reported in patent US6169181A, “Compounds useful to treat retroviral infections” (Pharmacia & Upjohn Company, priority 1998, dated 2001).
Where “and” joins values, the source holds several entries; their conditions need not be identical. Identical values can stand only once. Counter-ions that a name gives are not always drawn. Like-named read-outs stand apart in the source and are kept apart here.

Experiments:
HIV-1 protease [1] = target: T1, HIV-1 protease (Human immunodeficiency virus type 1 group M subtype B, UniProt P04585); test: biochemical; conditions: Table I, read-out: Protease % Inhib; for inhibition at 0.37 µM: Dose 0.370 μM; for inhibition at 1.1 µM: Dose 1.100 μM; for inhibition at 3.3 µM: Dose 3.300 μM
How it was run: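 A substrate biotinylated at the N-terminal arginine and FITC-labelled at the C-terminal lysine was incubated with HIV-1 protease (10 μl of 0.1 μM) and compound for 1 h in the dark at room temperature. Buffer was 0.1 M sodium acetate pH 5.5, 1.0 M NaCl, 0.05% NP-40. Labelled product was separated from substrate using streptavidin beads and filtration, and the fluorescence gave percent inhibition.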

HIV-1 protease [2] = target: T1, HIV-1 protease; test: biochemical; conditions: read-out: HIV Protease FITC Assay Ki
How it was run: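 Biotinylated, FITC-labelled peptide substrate cleaved in 0.1 M sodium acetate pH 5.5, 1.0 M NaCl, 0.05% NP-40, room temperature. Filtered labelled product read by fluorescence; nonlinear least-squares fit.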

| SMILES | inhibition at 0.123 µM (HIV-1 protease [1]) | inhibition at 0.37 µM (HIV-1 protease [1]) | inhibition at 1.1 µM (HIV-1 protease [1]) | inhibition at 3.3 µM (HIV-1 protease [1]) | inhibition at 10 µM (HIV-1 protease [1]) | inhibition at 30 µM (HIV-1 protease [1]) | Ki (HIV-1 protease [2]; Table I) | inhibition at 3.39 µM (HIV-1 protease [1]; Dose 3.390 μM) | Ki (HIV-1 protease [2]) |
| --- | --- | --- | --- | --- | --- | --- | --- | --- | --- |
| O=c1oc(C(CC2CC2)CC2CC2)cc(O)c1C(c1cccc(NS(=O)(=O)c2nc3ccccc3[nH]2)c1)C1CC1 (stereo not shown) [Example 101, N-(3-{Cyclopropyl-[6-(2-cyclopropyl-1-cyclopropylmethyl-ethyl)-4-hydroxy-2-oxo-2H-pyran-3-yl]-methyl}-phenyl)-1H-benzo-imidazole-2-sulfonamide] | 70.2% | 84% | 93.3% | 97% | 102% | 97.3% | 0.66 nM |  |  |
| O=c1oc(C(CC2CC2)CC2CC2)cc(O)c1C(c1cccc(NS(=O)(=O)c2ncc[nH]2)c1)C1CC1 (stereo not shown) [Example 102, N-(3-{Cyclopropyl-[6-(2-cyclopropyl-1-cyclopropylmethyl-ethyl)-4-hydroxy-2-oxo-2H-pyran-3-yl]-methyl}-phenyl)-1H-imidazole-2-sulfonamide] | 87.1% | 92.7% | 102% | 110% | 117% | 108% | 0.7 nM |  |  |
| O=c1oc(C(CC2CC2)CC2CC2)cc(O)c1C(c1cccc(NS(=O)(=O)c2ccc3ccccc3n2)c1)C1CC1 (stereo not shown) [Example 103, N-(3-{Cyclopropyl-[6-(2-cyclopropyl-1-cyclopropylmethyl-ethyl)-4-hydroxy-2-oxo-2H-pyran-3-yl]-methyl}-phenyl)-2-quinolinesulfonamide] | 65.5% | 82.6% | 96.9% | 100% | 105% | 96% | 1.72 nM |  |  |
| CCC(CCOCCOC)c1cc(O)c(C(c2cccc(NS(=O)(=O)c3ccc(C#N)cc3)c2)C2CC2)c(=O)o1 (stereo not shown) [Example 106, 4-Cyano-N-(3-{cyclopropyl-[6-(1-ethyl-3-{2-methoxy-ethoxy}-propyl)-4-hydroxy-2-oxo-2H-pyran-3-yl]-methyl}-phenyl)-benzenesulfonamide] | 60.9% | 86.6% | 93.7% | 98.9% | 99% | 106% | 3.29 nM |  |  |
| CCC(CCNS(=O)(=O)c1cn(C)cn1)c1cc(O)c(C(c2cccc(NS(=O)(=O)c3cn(C)cn3)c2)C2CC2)c(=O)o1 (stereo not shown) [Example 107, N-(3-{Cyclopropyl-[6-(1-ethyl-3-{1-methyl-1H-imidazole-4-sulfonylamino}-propyl)-4-hydroxy-2-oxo-2H-pyran-3-yl]-methyl}-phenyl)-1-methyl-1H-imidazole-4-sulfonamide] | 92.7% | 99.2% | 105% | 103% | 110% | 103% | 0.89 nM and 0.7 nM |  |  |
| CCC(CCBr)c1cc(O)c(C(c2cccc(NS(=O)(=O)c3cn(C)cn3)c2)C2CC2)c(=O)o1 (stereo not shown) [Example 108, N-(3-{[6-(3-Bromo-1-ethyl-propyl)-4-hydroxy-2-oxo-2H-pyran-3-yl]-cyclopropyl-methyl}-phenyl)-1-methyl-1H-imidazole-4-sulfonamide] | 103% | 102% | 102% |  | 108% | 106% | 0.16 nM | 102% |  |
| CCC(CCNC(=O)CCCCCCC(=O)N(C)CCS(=O)(=O)O)c1cc(O)c(C(c2cccc(NS(=O)(=O)c3cn(C)cn3)c2)C2CC2)c(=O)o1 (stereo not shown) [Example 110, 2-[[8-[[3-[3-[Cyclopropyl[3-[[(1-methyl-1H-imidazol-4-yl)sulfonyl]amino]phenyl]methyl]-4-hydroxy-2-oxo-2H-pyran-6-yl]pentyl]amino]-1,8-dioxooctyl]methylamino]-ethane sulfonic acid, monosodium salt] | 77.9% | 82.7% | 95.1% | 99.1% | 99.2% | 101% | 3.26 nM and 3.63 nM |  |  |
| CCC(Cc1ccccc1)c1cc(O)c(C(c2cccc(NS(=O)(=O)c3cn(C)cn3)c2)C2CC2)c(=O)o1 (stereo not shown) [Example 136, N-(3-{Cyclopropyl-[6-(1-ethylphenethyl)-4-hydroxy-2-oxo-2H-pyran-3-yl]-methyl}-phenyl)-1-methyl-1H-imidazole-4-sulfonamide] | 71.7% | 85.7% | 99% | 101% | 102% | 102% | 1.32 nM |  |  |
| CCC(CC1CCOCC1)c1cc(O)c(C(c2cccc(NS(=O)(=O)c3nccn3C)c2)C2CC2)c(=O)o1 (stereo not shown) [Example 145, N-(3-{Cyclopropyl-[6-(1-(tetrahydropyran-4-ylmethyl)-propyl)-4-hydroxy-2-oxo-2H-pyran-3-yl]-methyl}-phenyl)-1-methyl-1H-imidazole-2-sulfonamide] | 73.6% | 89.8% | 99.7% | 94.8% | 96.8% | 88% | 0.49 nM |  |  |
| CCC(CC1CCCOC1)c1cc(O)c(C(c2cccc(NS(=O)(=O)c3cccc4cccnc34)c2)C2CC2)c(=O)o1 (stereo not shown) [Example 145A, N-(3-[Cyclopropyl[4-hydroxy-2-oxo-6-[1-[(tetrahydro-2H-pyran-3-yl)methyl]propyl]-2H-pyran-3-yl]methyl]phenyl]-8-quinolinesulfonamide] | 109% | 111% | 119% | 115% | 113% | 114% | 1.1 nM |  |  |
| CCC(CC1CCCOC1)c1cc(O)c(C(c2cccc(NS(=O)(=O)c3cn(C)cn3)c2)C2CC2)c(=O)o1 (stereo not shown) [Example 145B, N-(3-[Cyclopropyl[4-hydroxy-2-oxo-6-[1-[(tetrahydro-2H-pyran-3-yl)methyl]propyl]-2H-pyran-3-yl]methyl]phenyl]-1-methyl-1H-imidazole-4-sulfonamide] | 81.8% | 88.4% | 96.5% | 87.8% | 102% | 84.5% | 1.24 nM |  |  |
| CC[C@H](Cc1ccccc1)c1cc(O)c(C(c2cccc(NS(=O)(=O)c3nc4ccccc4[nH]3)c2)C2CC2)c(=O)o1 (stereo partly drawn) [Example 146, N-(3-{Cyclopropyl-[6-(1-(R)-ethylphenethyl)-4-hydroxy-2-oxo-2H-pyran-3-yl]-methyl}-phenyl)-benzimidazole-2-sulfonamide] | 68.1% | 87.4% | 103% | 103% | 103% | 102% | 0.69 nM |  |  |
| CC[C@H](Cc1ccccc1)c1cc(O)c(C(c2cccc(NS(=O)(=O)c3ncc[nH]3)c2)C2CC2)c(=O)o1 (stereo partly drawn) [Example 147, N-(3-{Cyclopropyl-[6-(1-(R)-ethylphenethyl)-4-hydroxy-2-oxo-2H-pyran-3-yl]-methyl}-phenyl)-1H-imidazole-2-sulfonamide] | 77.5% | 103% | 112% | 110% | 114% | 108% |  |  | 1 nM |
